Laboratory results published in US20130324493A1, “COMPOSITIONS COMPRISING NINGNANMYCIN AND USES THEREFOR” (North Carolina State University, priority 2012, published 2013).
Values after ≈ are worked out from the molar mass of the structure shown. Like-named read-outs stand apart in the source and are kept apart here.

Experiments:
[1] = test system: Colletotrichum cereale; assay: In vitro sensitivity assay (radial growth on fungicide-amended PDA); type: cell-based
Protocol: (§1) Three isolates of S. homoeocarpa and two isolates of C. cereale were selected to evaluate ningnanmycin (Ningnanmycin 10WP, Deqiang Biological Co., LTD. Harbin, Helongjiang, China) in vitro activities using 5 three-fold dilutions from 0.81 to 0.01 μg a.i./ml. […] Based on preliminary experiments, five dilutions of triticonazole were used, ranging from 0.81 to 0.01 μg a.i/ml for isolates of S. homoeocarpa and from 6.25 to 0.01 μg a.i./ml for isolates of C. cereale. All isolates were prepared for long-term storage on pieces of dried filter paper maintained at −80° C. Filter paper sections containing each isolate were removed from −80° C. storage and placed on PDA amended with 0.05 μg/ml each of chloramphenicol, streptomycin, and tetracycline (PDA+++). After 3 days, mycelium-containing plugs (1×1 cm) were transferred to water agar for another 2 days. Then, water agar plugs (0.45 cm diameter) were cut from the periphery of the colony using a cork borer and placed on the center of Petri dishes containing non-amended PDA and PDA amended with the serial concentrations of each fungicide with three replicates per isolate. Radial growth was measured after three days (72 h) incubation at room temperature for isolates of S. homoeocarpa and seven days for isolates of C. cereale. Relative Growth (RG) was calculated by dividing colony diameter on amended PDA by that on the non-amended PDA. EC50 values were then calculated using the method described by Secor et al. (Fungicide resistance assays for fungal plant pathogens. Methods Mol Biol. 835:385-392, 2012). The in vitro sensitivity assay repeated twice and EC50 value of each isolates was determined as the mean of EC50 values from two assays.

[2] = test system: Sclerotinia homoeocarpa; assay: as above; type: cell-based; details: Clarireedia homoeocarpa
Protocol: as §1

[3] = test system: anthracnose (C. cereale); assay: Field efficacy test, control of anthracnose on putting green turf; type: in vivo, 'Dominant Plus' creeping bentgrass; details: for Turf quality: 1-to-9 scale (9 = best), anthracnose trial; for anthracnose control (in words): 2010, August
[4] = test system: Xanthomonas pruni; assay: Preliminary in vitro antibacterial study; type: cell-based; details: ningnanmycin at 100 ug/ml
[5] = test system: X. translucent; assay: Preliminary in vitro antibacterial study; type: cell-based
[6] = test system: Pantoea ananatis; assay: Preliminary in vitro antibacterial study; type: cell-based; details: ningnanmycin at 100 ug/ml
[7] = test system: Acidovorax aveane; assay: Preliminary in vitro antibacterial study; type: cell-based; details: ningnanmycin at 100 ug/ml
[8] = test system: P. aphanidermatum; assay: In vitro activity on turfgrass strains; type: cell-based, Pythium aphanidermatum
[9] = test system: Rhizoctonia solani (AG2-2IIIB); assay: In vitro activity; type: cell-based; details: AG2-2IIIB causing brown patch on creeping bentgrass
[10] = test system: brown patch (Rhizoctonia solani AG2-2IIIB); assay: Preliminary field experiment, brown patch; type: in vivo; details: creeping bentgrass
[11] = test system: Ophiosphaerella herpotricha (spring dead spot); assay: Preliminary in vitro experiment; type: cell-based
[12] = test system: Magnaporthe poae (summer patch); type: cell-based; details: preliminary experiment
[13] = test system: M. griesea (turf gray leaf pot); assay: Preliminary in vitro experiment; type: cell-based
[14] = test system: creeping bentgrass; details: field plots treated with ningnanmycin, 2010 and 2011
[15] = test system: Fish; details: species not given; cited from earlier work
[16] = test system: honey bee; details: cited from earlier work
[17] = test system: mammals; details: Hu et al. 1997; cited from earlier work
[18] = test system: earthworms; details: cited from earlier work
[19] = test system: rat; details: cited from earlier work
[20] = test system: rat; details: cited from earlier work; remark: listed apart in the source
[21] = test system: rabbit; details: cited from earlier work
[22] = test system: rabbit; details: cited from earlier work; remark: listed apart in the source
[23] = test system: guinea pig; details: cited from earlier work
[24] = test system: green algae; details: green algae, 72 h; cited from earlier work

## CNCC(=O)NC(CO)C(=O)NC1C(C(N)=O)OC(n2ccc(N)nc2=O)C(O)C1O [ningnanmycin, 4-sarcosinamido-L-serinamido-4-deoxy-β-D-pyranoglucuronamido]
[1]; 168 h, isolate ABR1, radial growth after seven days, mean of two assays
  EC50: 0.36 µg/mL (≈ 0.812 µM)
[1]; 168 h, isolate ABR12, radial growth after seven days, mean of two assays
  EC50: 0.24 µg/mL (≈ 0.541 µM)
[1]; read-out: mean EC50, mean of two isolates
  EC50: 0.3 µg/mL (≈ 0.677 µM)
[2]; 72 h, isolate 761SHME, radial growth after 72 h, mean of two assays
  EC50: 0.02 µg/mL (≈ 0.0451 µM)
[2]; 72 h, isolate LWC 27, radial growth after 72 h, mean of two assays
  EC50: 0.01 µg/mL (≈ 0.0226 µM)
[2]; 72 h, isolate PST4, radial growth after 72 h, mean of two assays
  EC50: 0.01 µg/mL (≈ 0.0226 µM)
[2]; read-out: mean EC50, mean of three isolates
  EC50: 0.01 µg/mL (≈ 0.0226 µM)
[3]; Ningnanmycin 10WP 0.08 g/m^2, 7 d interval, Aug. 8, 2010
  Turf quality: 5
[3]; Ningnanmycin 10WP 0.08 g/m^2, 7 d interval, Aug. 15, 2010
  Turf quality: 4
[3]; Ningnanmycin 10WP 0.15 g/m^2, 7 d interval, Aug. 8, 2010
  Turf quality: 5
[3]; Ningnanmycin 10WP 0.15 g/m^2, 7 d interval, Aug. 15, 2010
  Turf quality: 5
[3]; Ningnanmycin 10WP 0.15 g/m^2, 10 d interval, Aug. 8, 2010
  Turf quality: 5
[3]; Ningnanmycin 10WP 0.15 g/m^2, 10 d interval, Aug. 15, 2010
  Turf quality: 4
[3]; Ningnanmycin 10WP 0.30 g/m^2, 10 d interval, Aug. 8, 2010
  Turf quality: 5
[3]; Ningnanmycin 10WP 0.30 g/m^2, 10 d interval, Aug. 15, 2010
  Turf quality: 4
[3]; Ningnanmycin 10WP 0.30 g/m^2, 14 d interval, Aug. 8, 2010
  Turf quality: 4
[3]; Ningnanmycin 10WP 0.30 g/m^2, 14 d interval, Aug. 15, 2010
  Turf quality: 4
[3]; 0.15 g/m^2, 7-day interval
  anthracnose control (in words): satisfactory level of control
[3]; 0.15 g/m^2, 14-day interval
  anthracnose control (in words): lowest suppression of anthracnose but still provided significant suppression compared to the untreated
[3]; 0.30 g/m^2, 7-day interval
  anthracnose control (in words): highest level of anthracnose control
[3]; 0.30 g/m^2, 14-day interval
  anthracnose control (in words): lowest suppression of anthracnose but still provided significant suppression compared to the untreated
[3]; Ningnanmycin 10WP 0.08 g/m^2, 7 d interval, Aug. 1, 2011
  Anthracnose severity (%): 16%
[3]; Ningnanmycin 10WP 0.08 g/m^2, 7 d interval, Aug. 8, 2011
  Anthracnose severity (%): 4%
[3]; Ningnanmycin 10WP 0.08 g/m^2, 7 d interval, Aug. 15, 2011
  Anthracnose severity (%): 15%
[3]; Ningnanmycin 10WP 0.08 g/m^2, 7 d interval, Jul. 25, 2011
  Anthracnose severity (%): 20%
[3]; Ningnanmycin 10WP 0.15 g/m^2, 7 d interval, Aug. 1, 2011
  Anthracnose severity (%): 9%
[3]; Ningnanmycin 10WP 0.15 g/m^2, 7 d interval, Aug. 8, 2011
  Anthracnose severity (%): 3%
[3]; Ningnanmycin 10WP 0.15 g/m^2, 7 d interval, Aug. 15, 2011
  Anthracnose severity (%): 9%
[3]; Ningnanmycin 10WP 0.15 g/m^2, 7 d interval, Jul. 25, 2011
  Anthracnose severity (%): 17%
[3]; Ningnanmycin 10WP 0.15 g/m^2, 10 d interval, Aug. 1, 2011
  Anthracnose severity (%): 18%
[3]; Ningnanmycin 10WP 0.15 g/m^2, 10 d interval, Aug. 8, 2011
  Anthracnose severity (%): 8%
[3]; Ningnanmycin 10WP 0.15 g/m^2, 10 d interval, Aug. 15, 2011
  Anthracnose severity (%): 17%
[3]; Ningnanmycin 10WP 0.15 g/m^2, 10 d interval, Jul. 25, 2011
  Anthracnose severity (%): 21%
[3]; Ningnanmycin 10WP 0.30 g/m^2, 10 d interval, Aug. 1, 2011
  Anthracnose severity (%): 20%
[3]; Ningnanmycin 10WP 0.30 g/m^2, 10 d interval, Aug. 8, 2011
  Anthracnose severity (%): 3%
[3]; Ningnanmycin 10WP 0.30 g/m^2, 10 d interval, Aug. 15, 2011
  Anthracnose severity (%): 15%
[3]; Ningnanmycin 10WP 0.30 g/m^2, 10 d interval, Jul. 25, 2011
  Anthracnose severity (%): 16%
[3]; Ningnanmycin 10WP 0.30 g/m^2, 14 d interval, Aug. 1, 2011
  Anthracnose severity (%): 14%
[3]; Ningnanmycin 10WP 0.30 g/m^2, 14 d interval, Aug. 8, 2011
  Anthracnose severity (%): 6%
[3]; Ningnanmycin 10WP 0.30 g/m^2, 14 d interval, Aug. 15, 2011
  Anthracnose severity (%): 13%
[3]; Ningnanmycin 10WP 0.30 g/m^2, 14 d interval, Jul. 25, 2011
  Anthracnose severity (%): 20%
[4]
  in vitro activity: did not show any in vitro activity
[5]; ningnanmycin at 100 ug/ml, preliminary study
  in vitro activity: did not show any in vitro activity
[5]; ningnanmycin at 100 ppm
  activity against strains infecting turfgrass: not been able to detect any activity
[6]
  in vitro activity: did not show any in vitro activity
[7]
  in vitro activity: did not show any in vitro activity
[8]; concentration not given
  in vitro activity: no in vitro activity
[8]; ningnanmycin at 100 ppm
  activity against strains infecting turfgrass: not been able to detect any activity
[9]
  in vitro activity: showed in vitro activity
[10]
  efficacy against brown patch: little to no efficacy
[11]
  in vitro activity: demonstrated in vitro activity
[12]
  in vitro activity: demonstrated in vitro activity
[13]
  in vitro activity: demonstrated in vitro activity
[14]
  plant growth regulator effects: no plant growth regulator effects were observed
[15]
  Fish LC50 (96 h): >1,000 mg/L
[16]
  Non-mammals, honey bee: 200 μg/bee
[17]
  carcinogenicity, reproductive toxicity, developmental effects: no carcinogenicity, reproductive toxicity, or developmental effects have been observed
  toxicity to mammals: very low toxicity
[18]
  adverse effects in non-target organisms: no adverse effects were observed
[19]; female
  Acute toxicity Oral LD50: 12,100 mg/kg (female)
[19]; male
  Acute toxicity Oral LD50: 6,810 mg/kg (male)
[20]
  Acute toxicity Dermal LD50: >2,000 mg/Kg mg/kg
[21]
  Irritation to eye: no
[22]
  Irritation to skin: no
[23]
  Sensitization: no
[24]
  Aquatic plants EC50: 12.0 mg/L (72 h)
